Structures can show the parent of a compound that is named as a salt.
Tested on: prurigo nodularis patients
Assay: TR03ext (Example 3): PAS prurigo lesions with excoriations/crusts; Stage 0 0%, Stage 1 1%-25%, Stage 2 26%-50%, Stage 3 51%-75%, Stage 4 76%-100%
Type: in vivo, human
Description: In some embodiments, after the treatment the patient experiences a substantial reduction of itch that is characterized by at least one category/stage improvement in Prurigo Activity Score (PAS). In particular embodiments, after the treatment the patient experiences a reduction of itch that results in at least one category/stage improvement in Prurigo Activity Score (PAS) domains of number of prurigo lesions, prurigo lesions with excoriations/crusts and/or healed prurigo lesions. The PAS consists of 7 qualitative and quantitative measurements related to the examination of the skin. Type, number, distribution, affected body parts, and quantitative number of lesions in a representative body part are documented. The biggest lesion and the most representative lesion are monitored with documentation of height and area measurements. Prurigo lesion activity is recorded as a percentages based on their stage (0-4). In some embodiments, number measurements of lesions on the body have four numerical categories: 0, 1-19, 20-100 and >100. In some embodiments, prurigo lesions with excoriations/crusts have five categories: Stage 4 (76%-100%), Stage 3 (51%-75%), Stage 2 (26%-50%), Stage 1 (1-25%) and Stage 0 (0%). In some embodiments, healed prurigo lesions have five categories: Stage 4 (0-24%), Stage 3 (25-49%), Stage 2 (50-74%), Stage 1 (75%-99%), Stage 0 (100%).
This clinical study was a Phase 2 Open Label Extension Study (clinical study TR03ext) of the randomized, double-blind, 3-parallel arm, placebo controlled dose ranging study described in Example 2. All those subjects who were randomized, and then completed Example 2 study, were eligible to participate in the Extension Study.
The primary endpoint was a description of the overall incidence and nature of Treatment-Emergent AEs (TEAES) during weeks 5-50 of the study. Exploratory efficacy endpoints included Change from Baseline patient reported outcome measures of Worst itch NRS, itchy VRS and ItchyQoL, by Treatment Period study visit and Baseline NRS score. There was also an assessment of any potential skin lesion changes over time using the metrics of the PAS.
Patients in Extension Study were titrated over a dose range of 30 mg QD to 180 mg BID based on tolerability. The selected dose range was based on Example 2 study whereby patients were titrated from a 30 mg QD dose either to 30 mg BID, 60 mg BID, 90 mg BID, 120 mg BID or a 180 mg BID dose. The highest dose proposed was 180 mg BID (360 mg daily dose), and was well below the highest recommended daily treatment of 160 mg IV (equivalent to 960 mg oral) for the current marketed parenteral administered product.
Table 15, 16 and 17 display excoriations/crusts lesion PAS data for subjects who received treatment for at least 6 months, subjects who received treatment for at least 9 months and subjects who completed 50 weeks of treatment in the study, respectively. The status of the prurigo lesions with excoriations/crusts is reported as percentages based on their stage (0-4) using a grading system: Stage 0 (0% excoriations/crusts); Stage 1 (1%-25% excoriations/crusts); Stage 2 (26%-50% excoriations/crusts); Stage 3 (51%-75% excoriations/crusts); Stage 4: (76%-100% excoriations/crusts). Thus, the higher the stage, the more severe is the prurigo skin pathology.

[1] = treatment for at least 6 months
[2] = treatment for at least 9 months

Oc1ccc2c3c1OC1[C@@H](O)CC[C@@]4(O)[C@@H](C2)N(CC2CCC2)CC[C@]314 (stereo partly drawn) [Nalbuphine, 17-(cyclobutylmethyl)-4,5α-epoxymorphinian-3, 6α, 14-triol, hydrochloride]
2 (11.8) Number (%) of Subjects: Excoriated/Crusts PAS: Last Observed PAS Result Stage 2 [1] | Excoriated/Crusts PAS: Last Observed PAS Result Stage 4 [1]
66.6%: Subjects with at least one category improvement (lesser stage) in the percentage of excoriations/crust lesions (PAS) (after 12 months, 8/12)
1 (7.7%) Number (%) of Subjects: Excoriated/Crusts PAS Category Shift: Baseline Stage 1 to Last Observed Stage 1 (treatment for 50 weeks) | Excoriated/Crusts PAS Category Shift: Baseline Stage 1 to Last Observed Stage 4 (treatment for 50 weeks) | Excoriated/Crusts PAS Category Shift: Baseline Stage 3 to Last Observed Stage 3 (treatment for 50 weeks) | Excoriated/Crusts PAS Category Shift: Baseline Stage 4 to Last Observed Stage 0 (treatment for 50 weeks) | Excoriated/Crusts PAS Category Shift: Baseline Stage 4 to Last Observed Stage 4 (treatment for 50 weeks)
3 (17.6) Number (%) of Subjects: Excoriated/Crusts PAS: Last Observed PAS Result Stage 0 [1]
2 (15.4%) Number (%) of Subjects: Excoriated/Crusts PAS Category Shift: Baseline Stage 3 to Last Observed Stage 2 (treatment for 50 weeks)
2 (11.8%) Number (%) of Subjects: Excoriated/Crusts PAS Category Shift: Baseline Stage 3 to Last Observed Stage 2 [1] | Excoriated/Crusts PAS Category Shift: Baseline Stage 4 to Last Observed Stage 1 [1]
2 (15.4) Number (%) of Subjects: Excoriated/Crusts PAS: Last Observed PAS Result Stage 0 (treatment for 50 weeks) | Excoriated/Crusts PAS: Last Observed PAS Result Stage 2 (treatment for 50 weeks) | Excoriated/Crusts PAS: Last Observed PAS Result Stage 4 (treatment for 50 weeks)
5 (38.5%) Number (%) of Subjects: Excoriated/Crusts PAS Category Shift: Baseline Stage 2 to Last Observed Stage 1 (treatment for 50 weeks)
5 (29.4%) Number (%) of Subjects: Excoriated/Crusts PAS Category Shift: Baseline Stage 2 to Last Observed Stage 1 [1]
6 (46.2) Number (%) of Subjects: Excoriated/Crusts PAS: Last Observed PAS Result Stage 1 (treatment for 50 weeks)
1 (7.1) Number (%) of Subjects: Excoriated/Crusts PAS: Last Observed PAS Result Stage 3 [2]
2 (14.3) Number (%) of Subjects: Excoriated/Crusts PAS: Last Observed PAS Result Stage 0 [2] | Excoriated/Crusts PAS: Last Observed PAS Result Stage 2 [2] | Excoriated/Crusts PAS: Last Observed PAS Result Stage 4 [2]
69.2%: Subjects with at least one category improvement (lesser stage) in the percentage of excoriations/crust lesions (PAS) (after 9 months, 9/13)
0 Number (%) of Subjects: Excoriated/Crusts PAS Category Shift: Baseline Stage 0 to Last Observed Stage 1 (treatment for 50 weeks) | Excoriated/Crusts PAS Category Shift: Baseline Stage 0 to Last Observed Stage 2 (treatment for 50 weeks) | Excoriated/Crusts PAS Category Shift: Baseline Stage 0 to Last Observed Stage 3 (treatment for 50 weeks) | Excoriated/Crusts PAS Category Shift: Baseline Stage 0 to Last Observed Stage 4 (treatment for 50 weeks) | Excoriated/Crusts PAS Category Shift: Baseline Stage 1 to Last Observed Stage 0 (treatment for 50 weeks) | Excoriated/Crusts PAS Category Shift: Baseline Stage 1 to Last Observed Stage 2 (treatment for 50 weeks) | Excoriated/Crusts PAS Category Shift: Baseline Stage 1 to Last Observed Stage 3 (treatment for 50 weeks) | Excoriated/Crusts PAS Category Shift: Baseline Stage 2 to Last Observed Stage 0 (treatment for 50 weeks) | Excoriated/Crusts PAS Category Shift: Baseline Stage 2 to Last Observed Stage 2 (treatment for 50 weeks) | Excoriated/Crusts PAS Category Shift: Baseline Stage 2 to Last Observed Stage 3 (treatment for 50 weeks) | Excoriated/Crusts PAS Category Shift: Baseline Stage 2 to Last Observed Stage 4 (treatment for 50 weeks) | Excoriated/Crusts PAS Category Shift: Baseline Stage 3 to Last Observed Stage 0 (treatment for 50 weeks) | Excoriated/Crusts PAS Category Shift: Baseline Stage 3 to Last Observed Stage 1 (treatment for 50 weeks) | Excoriated/Crusts PAS Category Shift: Baseline Stage 3 to Last Observed Stage 4 (treatment for 50 weeks) | Excoriated/Crusts PAS Category Shift: Baseline Stage 4 to Last Observed Stage 1 (treatment for 50 weeks) | Excoriated/Crusts PAS Category Shift: Baseline Stage 4 to Last Observed Stage 2 (treatment for 50 weeks) | Excoriated/Crusts PAS Category Shift: Baseline Stage 4 to Last Observed Stage 3 (treatment for 50 weeks) | Excoriated/Crusts PAS Category Shift: Baseline Stage 0 to Last Observed Stage 1 [1] | Excoriated/Crusts PAS Category Shift: Baseline Stage 0 to Last Observed Stage 2 [1] | Excoriated/Crusts PAS Category Shift: Baseline Stage 0 to Last Observed Stage 3 [1] | Excoriated/Crusts PAS Category Shift: Baseline Stage 0 to Last Observed Stage 4 [1] | Excoriated/Crusts PAS Category Shift: Baseline Stage 1 to Last Observed Stage 0 [1] | Excoriated/Crusts PAS Category Shift: Baseline Stage 1 to Last Observed Stage 2 [1] | Excoriated/Crusts PAS Category Shift: Baseline Stage 1 to Last Observed Stage 3 [1] | Excoriated/Crusts PAS Category Shift: Baseline Stage 2 to Last Observed Stage 2 [1] | Excoriated/Crusts PAS Category Shift: Baseline Stage 2 to Last Observed Stage 3 [1] | Excoriated/Crusts PAS Category Shift: Baseline Stage 2 to Last Observed Stage 4 [1] | Excoriated/Crusts PAS Category Shift: Baseline Stage 3 to Last Observed Stage 0 [1] | Excoriated/Crusts PAS Category Shift: Baseline Stage 3 to Last Observed Stage 4 [1] | Excoriated/Crusts PAS Category Shift: Baseline Stage 4 to Last Observed Stage 2 [1] | Excoriated/Crusts PAS Category Shift: Baseline Stage 4 to Last Observed Stage 3 [1] | Excoriated/Crusts PAS Category Shift: Baseline Stage 0 to Last Observed Stage 1 [2] | Excoriated/Crusts PAS Category Shift: Baseline Stage 0 to Last Observed Stage 2 [2] | Excoriated/Crusts PAS Category Shift: Baseline Stage 0 to Last Observed Stage 3 [2] | Excoriated/Crusts PAS Category Shift: Baseline Stage 0 to Last Observed Stage 4 [2] | Excoriated/Crusts PAS Category Shift: Baseline Stage 1 to Last Observed Stage 0 [2] | Excoriated/Crusts PAS Category Shift: Baseline Stage 1 to Last Observed Stage 2 [2] | Excoriated/Crusts PAS Category Shift: Baseline Stage 1 to Last Observed Stage 3 [2] | Excoriated/Crusts PAS Category Shift: Baseline Stage 2 to Last Observed Stage 0 [2] | Excoriated/Crusts PAS Category Shift: Baseline Stage 2 to Last Observed Stage 2 [2] | Excoriated/Crusts PAS Category Shift: Baseline Stage 2 to Last Observed Stage 3 [2] | Excoriated/Crusts PAS Category Shift: Baseline Stage 2 to Last Observed Stage 4 [2] | Excoriated/Crusts PAS Category Shift: Baseline Stage 3 to Last Observed Stage 0 [2] | Excoriated/Crusts PAS Category Shift: Baseline Stage 3 to Last Observed Stage 1 [2] | Excoriated/Crusts PAS Category Shift: Baseline Stage 3 to Last Observed Stage 4 [2] | Excoriated/Crusts PAS Category Shift: Baseline Stage 4 to Last Observed Stage 2 [2] | Excoriated/Crusts PAS Category Shift: Baseline Stage 4 to Last Observed Stage 3 [2]
1 (5.9%) Number (%) of Subjects: Excoriated/Crusts PAS Category Shift: Baseline Stage 0 to Last Observed Stage 0 [1] | Excoriated/Crusts PAS Category Shift: Baseline Stage 1 to Last Observed Stage 1 [1] | Excoriated/Crusts PAS Category Shift: Baseline Stage 1 to Last Observed Stage 4 [1] | Excoriated/Crusts PAS Category Shift: Baseline Stage 2 to Last Observed Stage 0 [1] | Excoriated/Crusts PAS Category Shift: Baseline Stage 3 to Last Observed Stage 1 [1] | Excoriated/Crusts PAS Category Shift: Baseline Stage 3 to Last Observed Stage 3 [1] | Excoriated/Crusts PAS Category Shift: Baseline Stage 4 to Last Observed Stage 0 [1] | Excoriated/Crusts PAS Category Shift: Baseline Stage 4 to Last Observed Stage 4 [1]
2 (14.3%) Number (%) of Subjects: Excoriated/Crusts PAS Category Shift: Baseline Stage 3 to Last Observed Stage 2 [2]
9 (52.9) Number (%) of Subjects: Excoriated/Crusts PAS: Last Observed PAS Result Stage 1 [1]
1 (7.7) Number (%) of Subjects: Excoriated/Crusts PAS: Last Observed PAS Result Stage 3 (treatment for 50 weeks)
81.2%: Subjects with at least one category improvement (lesser stage) in the percentage of excoriations/crust lesions (PAS) (after 6 months, 13/16)
5 (35.7%) Number (%) of Subjects: Excoriated/Crusts PAS Category Shift: Baseline Stage 2 to Last Observed Stage 1 [2]
1 (5.9) Number (%) of Subjects: Excoriated/Crusts PAS: Last Observed PAS Result Stage 3 [1]
1 (7.1%) Number (%) of Subjects: Excoriated/Crusts PAS Category Shift: Baseline Stage 0 to Last Observed Stage 0 (treatment for 50 weeks) | Excoriated/Crusts PAS Category Shift: Baseline Stage 0 to Last Observed Stage 0 [2] | Excoriated/Crusts PAS Category Shift: Baseline Stage 1 to Last Observed Stage 1 [2] | Excoriated/Crusts PAS Category Shift: Baseline Stage 1 to Last Observed Stage 4 [2] | Excoriated/Crusts PAS Category Shift: Baseline Stage 3 to Last Observed Stage 3 [2] | Excoriated/Crusts PAS Category Shift: Baseline Stage 4 to Last Observed Stage 0 [2] | Excoriated/Crusts PAS Category Shift: Baseline Stage 4 to Last Observed Stage 1 [2] | Excoriated/Crusts PAS Category Shift: Baseline Stage 4 to Last Observed Stage 4 [2]
7 (50.0) Number (%) of Subjects: Excoriated/Crusts PAS: Last Observed PAS Result Stage 1 [2]

Source: patent US20220347171A1, “TREATMENT OF PRURIGO NODULARIS” (TREVI THERAPEUTICS, INC., priority 2016, published 2022)
